Series [1] can be described thus: Hygroscopicity measurement. The class given is physicochemical. The note with it: 25°C, 92.5% RH, 24 hours. The protocol:
(§1) 3. Hygroscopicity Measurement Method: The test sample was placed for 24 hours at 25°C and 92.5% RH, and then the weight gain by moisture absorption was measured. 4. Stability Test Method: The test sample was placed in a suitable clean container for 14 days under a high temperature (60°C), or a high humidity (40°C, a relative humidity of 75%) condition, and it was sampled on day 0 and day 14 to detect the purity and impurities of the test sample.

Series [2] in a line: Stability test of the salts (high temperature / high humidity, 14 days). It is filed as physicochemical. Here is the method:
as §1

A short description of series [3]: Solubility test in water by HPLC (external standard). It is filed as physicochemical. Conditions: 37°C, shaken 30 minutes. Here is the method: 1. X-ray Powder Diffraction (XRPD) Test Method: • Instrument: Bruker D8 advance X-ray polycrystalline diffractometer; Target: Cu-Kα (40 kV, 40 mA); Sample-to-detector distance: 30 cm; Scanning type: two-axis linkage; Scanning step width: 0.02°; Scanning range: 3°~40°; Scanning step: 0.1 s. • In general, diffraction angles (2θ values) in XRPD may produce errors within a range of ± 0.2°, and thus numerical values relating to diffraction angles in the present invention should be understood to also encompass numerical values within a range of about ± 0.2°. Therefore, the present invention not only covers the crystal form that completely matches the characteristic signal peak in the specific XRPD pattern, but also covers the crystal form that has an error of about ± 0.2° with the characteristic signal peak in the specific XRPD pattern. 2. Solubility Test Method: About 20 mg of the test sample was taken and placed in a 1.5 ml sample tube, added with 1 ml of water, then placed in a shaker, shaken at 37°C for 30 minutes, the sample tube was taken and centrifuged in a centrifuge for 2 minutes, and the supernatant was taken for HPLC analysis.

The conditions of series [4]: cited from earlier work.
The target in the next series is serotonin reuptake (Homo sapiens, UniProt P31645). The note with it: read-out: serotonin reuptake inhibition concentration (IC50); cited from earlier work.
Chain of serotonin reuptake (P31645 whole entry): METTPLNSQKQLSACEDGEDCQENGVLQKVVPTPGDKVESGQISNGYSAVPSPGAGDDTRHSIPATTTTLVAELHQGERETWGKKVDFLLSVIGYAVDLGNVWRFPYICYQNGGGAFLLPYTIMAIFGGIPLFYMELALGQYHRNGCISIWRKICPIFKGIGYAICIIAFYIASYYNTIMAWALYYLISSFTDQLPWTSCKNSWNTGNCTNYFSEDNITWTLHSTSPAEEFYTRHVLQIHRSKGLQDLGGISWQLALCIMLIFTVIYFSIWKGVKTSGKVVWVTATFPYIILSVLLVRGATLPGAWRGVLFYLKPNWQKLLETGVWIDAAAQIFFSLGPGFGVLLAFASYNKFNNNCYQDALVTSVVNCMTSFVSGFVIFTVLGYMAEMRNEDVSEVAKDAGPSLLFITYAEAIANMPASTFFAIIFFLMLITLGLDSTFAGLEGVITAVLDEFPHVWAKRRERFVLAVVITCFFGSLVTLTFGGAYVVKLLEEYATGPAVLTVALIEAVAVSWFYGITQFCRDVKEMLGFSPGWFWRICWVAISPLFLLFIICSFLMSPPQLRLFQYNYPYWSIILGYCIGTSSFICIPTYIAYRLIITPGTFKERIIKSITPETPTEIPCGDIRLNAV
For the next series, the target named is T1, 5-HT3 receptor (Homo sapiens, UniProt P46098).
T1 sequence (P46098 24-478): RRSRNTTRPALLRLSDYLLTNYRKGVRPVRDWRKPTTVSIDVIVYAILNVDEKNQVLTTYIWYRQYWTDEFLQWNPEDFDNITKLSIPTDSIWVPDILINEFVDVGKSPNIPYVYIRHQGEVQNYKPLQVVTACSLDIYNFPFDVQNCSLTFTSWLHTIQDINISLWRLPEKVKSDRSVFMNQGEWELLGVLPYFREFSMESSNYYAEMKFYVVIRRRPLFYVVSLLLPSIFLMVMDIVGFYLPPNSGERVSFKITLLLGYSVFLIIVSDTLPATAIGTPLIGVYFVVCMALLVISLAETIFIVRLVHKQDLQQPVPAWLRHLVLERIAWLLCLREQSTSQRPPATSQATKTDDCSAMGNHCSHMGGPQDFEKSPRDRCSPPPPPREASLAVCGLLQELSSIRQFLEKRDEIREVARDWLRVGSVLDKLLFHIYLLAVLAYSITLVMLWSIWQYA
The note with it: cited from earlier work.

[5] abbreviates: 60°C/14 days (aluminum foil pouch).

≈ marks a conversion by molar mass, not a printed value. Where two headings read alike, the source gives them in different places.

Consider `CN1CC2CN(c3ccc4ccccc4c3)CC2C1` (single isomer, unassigned) [Example 6, 2-methyl-5-(naphthalen-2-yl)octahydropyrrolo[3,4-c]pyrrole], for which the “weight gain by moisture absorption” value in series [1] is reported as 1.26%.

What is called Solubility is the dissolved amount per volume that the medium holds. Turning to `CN1CC2CN(c3ccc4ccccc4c3)CC2C1` (single isomer, unassigned) [Example 4, 2-methyl-5-(naphthalen-2-yl)octahydropyrrolo[3,4-c]pyrrole], the “weight gain by moisture absorption” value in series [1] is reported as 6.74%. In addition, the “Total Impurity (%)” value in series [2] (40°C/75% RH/14 days) turned out to be 0.44%; in series [2] (60°C/14 days), 0.22%; in series [2] (setting [5]) it was 0.24%; in series [2] (Day 0), 0.21%. The compound further returned a Solubility in series [3] of 3.5 mg/mL (≈ 13.9 mM).

For the compound `CN1CC2CN(c3ccc4ccccc4c3)CC2C1` (single isomer, unassigned) [Example 7, 2-methyl-5-(naphthalen-2-yl)octahydropyrrolo[3,4-c]pyrrole], the “weight gain by moisture absorption” value in series [1] was found to be 0.64%. Further, the “Total Impurity (%)” value in series [2] (40°C/75% RH/14 days) was found to be 0.17%; in series [2] (60°C/14 days), 0.18%; in series [2] (setting [5]), 0.20%; in series [2] (Day 0) it was 0.14%. The compound also showed a Solubility in series [3] of 15 mg/mL (≈ 59.4 mM).

Consider `CN1CC2CN(c3ccc4ccccc4c3)CC2C1` (stereo not drawn) [Example 3, 2-methyl-5-(naphthalen-2-yl)octahydropyrrolo[3,4-c]pyrrole], for which, in series [1], the “weight gain by moisture absorption” value is “To be liquid”.

As to `CN1CC2CN(c3ccc4ccccc4c3)CC2C1` (single isomer, unassigned) [Example 5, 2-methyl-5-(naphthalen-2-yl)octahydropyrrolo[3,4-c]pyrrole], the “weight gain by moisture absorption” value in series [1] came to 1.21%. Besides, the Solubility in series [3] came to 4 mg/mL (≈ 15.9 mM).

Regarding `CN1CC2CN(c3ccc4ccccc4c3)CC2C1` (single isomer, unassigned) [Example 2, 2-methyl-5-(naphthalen-2-yl)octahydropyrrolo[3,4-c]pyrrole], the “weight gain by moisture absorption” value in series [1] was 0.74%. The “Total Impurity (%)” value is 0.31% in series [2] (40°C/75% RH/14 days), 0.37% in series [2] (60°C/14 days), 0.36% in series [2] (setting [5]) and 0.35% in series [2] (Day 0). The same compound returned a Solubility in series [3] of 11 mg/mL (≈ 43.6 mM).

Turning to `CN1CC2CN(c3ccc4ccccc4c3)CC2C1` (single isomer, unassigned) [Example 1, 2-methyl-5-(naphthalen-2-yl)octahydropyrrolo[3,4-c]pyrrole], the “weight gain by moisture absorption” value in series [1] is on record as 1.6%. The “Total Impurity (%)” value in series [2] (40°C/75% RH/14 days) is 0.15%; in series [2] (60°C/14 days), 0.19%; in series [2] (setting [5]), 0.19%; in series [2] (Day 0), 0.13%. The Solubility in series [3] is recorded as >100 mg/mL.

As for `CN1CC2CN(c3ccc4ccccc4c3)CC2C1` (stereo not drawn) [compound of formula (I), 2-methyl-5-(naphthalen-2-yl)octahydropyrrolo[3,4-c]pyrrole], the Solubility result in series [4] is “low”; in series [3] (listed as basic compound of formula (I)), “Almost Insoluble”. Moreover, on serotonin reuptake, the IC50 is < 10 nM. In addition, on 5-HT3 receptor, the “affinity for 5-HT3 receptor” value was “high affinity”. Moreover, the “Total Impurity (%)” value worked out at 0.41% in series [2] (40°C/75% RH/14 days, listed as Basic compoun d); 0.31% in series [2] (60°C/14 days (aluminum foil pouch), listed as Basic compoun d); 0.23% in series [2] (60°C/14 days, listed as Basic compoun d); 0.15% in series [2] (Day 0, listed as Basic compoun d).

Values taken from patent EP4653441A1, “SALT OF ANTIDEPRESSANT COMPOUND, AND PREPARATION METHOD THEREFOR, PHARMACEUTICAL COMPOSITION CONTAINING SAME AND USE THEREOF” (Vigonvita Life Sciences Co., Ltd., priority 2023, dated 2024).
